Test results published in patent US9181234B2, “Antibacterial compounds” (priority 2010, dated 2015).
≈ marks a conversion by molar mass, not a printed value. Read-outs that look alike come from different tables or passages of the source.

Columns and labels:
[1] = physchem; conditions: pH 7.4, aqueous buffer, kinetic from dmso stock
Outline: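 DMSO doubling dilutions were diluted twenty-fold into 100 mM citrate (pH 4), PBS (pH 7.4) or carbonate-bicarbonate (pH 9). After 24 h equilibration at room temperature, absorbance was read at 620 nm. The reported value is the highest concentration without measurable precipitate.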

[2] = system: Haemophilus influenzae (Isolate ID ATCC 49247); test: Antibacterial activity, MIC, H. influenzae; assay type: cell-based; conditions: Haemophilus influenzae, ATCC49247; Gram negative strain; broth microdilution or agar dilution
Outline: (§1)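 Broth microdilution or agar dilution per CLSI M7-A7; MIC read as susceptibility endpoint in liquid or solid medium.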

[3] = system: Streptococcus pyogenes (Isolate ID ATCC 51339); test: Antibacterial activity, MIC, S. pyogenes; assay type: cell-based; conditions: Streptococcus pyogenes, ATCC51339, Gram positive strain; broth microdilution or agar dilution
Outline: as §1

[4] = Pharmacokinetic assay, IV and oral PK profile, mouse; assay type: in vivo; conditions: plasma; for bioavailability: [AUCoral/AUCiv]×100%, 3 mg/kg, read-out: F (%) bioavailability
Protocol: (§2) Pharmacokinetic Assays: Determination of PK Profile
(§3) The pharmacokinetic profiles of compounds were determined by measuring the compound concentration in plasma by LC/MS/MS following a single intravenous or peroral administration of the compounds at a dose of 3 mg/kg. The concentrations described are the mean plasma concentrations at each time point from three animals. Intravenous dose formulation was administered as a single bolus dose through the tail vein. Oral dose formulation was administered to animals by an oral gavage needle. In both cases the dose volume was 5.0 mL/kg. Blood was collected from rats using a jugular vein catheter and from anesthetized mice through a capillary guided into the retro-orbital plexus. The collected blood was centrifuged to obtain plasma and the compounds extracted into methanol prior to determining the compound concentration by LC/MS/MS. The results for selected compounds of the invention are shown in FIGS. 2 to 8 where the X axis denotes time (hours) and the Y axis denotes plasma concentration (ng/mL). The Cmaxoral (μg/mL), AUCiv (μg·hr/mL), AUCoral (μg.hr/mL) and F(%) values are provided in the following table where Cmaxoral is the maximum oral concentration, AUC is area under the curve for intraveneous (IV) and oral and F (%) represents compound bioavailability as calculated by [AUCoral/AUCiv]×100%.

[5] = system: Enterococcus faecalis (Isolate ID ATCC 29212); test: Antibacterial activity, MIC, E. faecalis; assay type: cell-based; conditions: Enterococcus faecalis, ATCC29212; Gram positive strain; broth microdilution or agar dilution
Outline: as §1

[6] = Pharmacokinetic assay, IV and oral PK profile, rat; assay type: in vivo; conditions: plasma; for bioavailability: [AUCoral/AUCiv]×100%, 3 mg/kg, read-out: F (%) bioavailability
Protocol: as §2, §3

[7] = system: Staphylococcus aureus (Isolate ID ATCC 29213); test: Antibacterial activity, MIC, S. aureus; assay type: cell-based; conditions: Staphylococcus aureus, ATCC29213, Gram positive strain; broth microdilution or agar dilution
Outline: as §1

[8] = molecular target: T1, Gyrase enzyme (A2B2 complex from Staphylococcus aureus) (UniProt P0A0K8); test: Gyrase ATPase assay (S. aureus enzyme); assay type: biochemical
T1 construct: 2 mU/μl Gyrase enzyme (A2B2 complex from Staphylococcus aureus); Alternatively
Protocol: On-Target Enzyme Assay: Determination of Gyrase ATPase Activity
Gyrase converts ATP into ADP and inorganic phosphate. The released phosphate can be detected by the addition of malachite green solution and measured by monitoring the increase in absorbance at 600 nm. The ATPase assay is carried out in a buffer containing 2 mU/μl Gyrase enzyme (A2B2 complex from Staphylococcus aureus), 0.08 mg/ml double-stranded DNA, 8 mM HEPES.KOH pH 7.6, 100 mM K glutamate, 2 mM Mg acetate, 2 mM DTT, 0.01 mg/ml BSA, and 5% DMSO solution containing the inhibitor. Alternatively, the ATPase assay is carried out in a buffer containing 4.8 μg/mL Gyrase enzyme (A2B2 complex from Escherichia coli), 0.08 μg/mL ssDNA, 35 mM Tris pH 7.5, 24 mM KCl, 2 mM MgCl2, 6.5% Glycerol, 2 mM DTT, 1.8 mM Spermidine, 0.5 mg/mL BSA and 5% DMSO solution containing the inhibitor. The reaction is started by adding ATP to a final concentration of 1 mM and allowed to incubate at 30° C. for 60 minutes. The reaction is stopped by adding […] of malachite green solution (0.034% malachite green, 10 mM ammonium molybdate, 1 M HCl, 3.4% ethanol, 0.01% tween 20). Colour is allowed to develop for 5 minutes and the absorbance at 600 nm is measured spectrophotometrically. The IC50 values are determined from the absorbance readings using no compound and no enzyme controls.

[9] = Solubility Range (maximum solubility)
[10] = po, single peroral dose 3 mg/kg, read-out: AUCoral
[11] = single intravenous dose 3 mg/kg, read-out: AUCiv

T1 sequence (P0A0K8 whole entry, one chain of several): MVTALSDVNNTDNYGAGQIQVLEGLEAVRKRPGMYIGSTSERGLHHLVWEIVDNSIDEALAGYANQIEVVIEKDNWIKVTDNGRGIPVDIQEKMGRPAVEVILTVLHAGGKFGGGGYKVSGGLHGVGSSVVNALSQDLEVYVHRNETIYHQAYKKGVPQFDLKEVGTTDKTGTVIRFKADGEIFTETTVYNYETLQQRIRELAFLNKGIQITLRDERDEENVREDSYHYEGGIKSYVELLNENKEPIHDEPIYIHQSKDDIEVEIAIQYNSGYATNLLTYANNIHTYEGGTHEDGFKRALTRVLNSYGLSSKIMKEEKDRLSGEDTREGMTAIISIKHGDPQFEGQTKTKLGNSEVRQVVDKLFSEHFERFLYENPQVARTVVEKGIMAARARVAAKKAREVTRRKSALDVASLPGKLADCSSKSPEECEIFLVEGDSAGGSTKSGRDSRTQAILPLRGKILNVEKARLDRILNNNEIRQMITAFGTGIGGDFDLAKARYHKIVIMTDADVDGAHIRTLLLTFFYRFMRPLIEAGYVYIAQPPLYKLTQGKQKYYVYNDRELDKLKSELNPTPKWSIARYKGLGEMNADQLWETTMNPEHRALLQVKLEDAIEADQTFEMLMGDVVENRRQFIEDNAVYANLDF

## CCNC(=O)Nc1nc2cc(-c3ccc(N4CCC(C)(C(=O)O)CC4)nc3)cc(-c3ccccn3)c2s1 [Compound 4]
[1]; Max Solubility
  solubility at 24 h: ≥ 800 µg/mL
[1]; Solubility (pH 7.4)
  solubility at 24 h: ≥ 800 µg/mL
[1]; Solubility Range
  solubility at 24 h: > 800 µg/mL
[1]; [9]
  solubility at 24 h: > 800 µg/mL
[2]
  MIC: 1 to 16 µg/mL (≈ 1.94 to 31 µM)
[3]
  MIC: ≤ 0.25 µg/mL
[4]; po
  bioavailability: 33%
[4]; [10]
  AUC: 2500 ng·h/mL
[4]; [11]
  AUC: 7600 ng·h/mL
[4]; single peroral dose 3 mg/kg
  Cmaxoral: 1700 ng/mL
[5]
  MIC: ≤ 0.25 µg/mL
[6]; po
  bioavailability: 31%
[6]; [10]
  AUC: 2100 ng·h/mL
[6]; [11]
  AUC: 6600 ng·h/mL
[6]; single peroral dose 3 mg/kg
  Cmaxoral: 600 ng/mL
[7]
  MIC: 0.25 to 1 µg/mL (≈ 0.484 to 1.94 µM)

## CCNC(=O)Nc1nc2cc(-c3cnc(N4CCC(C)(C(=O)O)CC4)nc3)cc(/C(C)=N/OC)c2s1 [Compound 88, 1-[5-[2-(ethylcarbamoylamino)-7-[(E)-N-methoxy-C-methyl-carbonimidoyl]-1,3-benzothiazol-5-yl]pyrimidin-2-yl]-4-methyl-piperidine-4-carboxylic acid]
[1]; Max Solubility
  solubility at 24 h: ≥ 800 µg/mL
[1]; Solubility (pH 7.4)
  solubility at 24 h: ≥ 800 µg/mL
[1]; Solubility Range
  solubility at 24 h: > 800 µg/mL
[1]; [9]
  solubility at 24 h: > 800 µg/mL
[2]
  MIC: 1 to 16 µg/mL (≈ 1.95 to 31.3 µM)
[3]
  MIC: ≤ 0.25 µg/mL
[4]; po
  bioavailability: 56%
[4]; [10]
  AUC: 3400 ng·h/mL
[4]; [11]
  AUC: 6100 ng·h/mL
[4]; single peroral dose 3 mg/kg
  Cmaxoral: 2000 ng/mL
[5]
  MIC: ≤ 0.25 µg/mL
[7]
  MIC: ≤ 0.25 µg/mL

## CCNC(=O)Nc1nc2cc(-c3cnc(N4CCC(CC)(C(=O)O)CC4)nc3)cc(-c3ccccn3)c2s1 [Compound 98]
[1]; Solubility (pH 7.4)
  solubility at 24 h: ≥ 800 µg/mL
[1]; Solubility Range
  solubility at 24 h: > 800 µg/mL
[2]
  MIC: 1 to 16 µg/mL (≈ 1.88 to 30.1 µM)
[3]
  MIC: ≤ 0.25 µg/mL
[4]; po
  bioavailability: 87%
[4]; [10]
  AUC: 12500 ng·h/mL
[4]; [11]
  AUC: 14300 ng·h/mL
[4]; single peroral dose 3 mg/kg
  Cmaxoral: 6100 ng/mL
[5]
  MIC: ≤ 0.25 µg/mL
[6]; po
  bioavailability: 80.4%
[6]; [10]
  AUC: 22200 ng·h/mL
[6]; [11]
  AUC: 27700 ng·h/mL
[6]; single peroral dose 3 mg/kg
  Cmaxoral: 3500 ng/mL
[7]
  MIC: ≤ 0.25 µg/mL

## C=CCC1(C(=O)O)CCN(c2ncc(-c3cc(-c4ccccn4)c4sc(NC(=O)NCC)nc4c3)cn2)CC1 [Compound 136]
[1]; Max Solubility
  solubility at 24 h: ≥ 800 µg/mL
[1]; Solubility (pH 7.4)
  solubility at 24 h: ≥ 800 µg/mL
[1]; Solubility Range
  solubility at 24 h: > 800 µg/mL
[1]; [9]
  solubility at 24 h: > 800 µg/mL
[2]
  MIC: 1 to 16 µg/mL (≈ 1.84 to 29.4 µM)
[3]
  MIC: ≤ 0.25 µg/mL
[4]; po
  bioavailability: 83%
[4]; [10]
  AUC: 16500 ng·h/mL
[4]; [11]
  AUC: 20000 ng·h/mL
[4]; single peroral dose 3 mg/kg
  Cmaxoral: 4400 ng/mL
[5]
  MIC: ≤ 0.25 µg/mL
[6]; po
  bioavailability: 95.9%
[6]; [10]
  AUC: 34800 ng·h/mL
[6]; [11]
  AUC: 36300 ng·h/mL
[6]; single peroral dose 3 mg/kg
  Cmaxoral: 5500 ng/mL
[7]
  MIC: ≤ 0.25 µg/mL

## CCNC(=O)Nc1nc2cc(-c3cnc(N4CCC(C(=O)O)(C5CC5)CC4)nc3)cc(-c3ccccn3)c2s1 [Compound 143]
[1]; Max Solubility
  solubility at 24 h: ≥ 800 µg/mL
[1]; Solubility (pH 7.4)
  solubility at 24 h: ≥ 800 µg/mL
[1]; Solubility Range
  solubility at 24 h: > 800 µg/mL
[1]; [9]
  solubility at 24 h: > 800 µg/mL
[2]
  MIC: 1 to 16 µg/mL (≈ 1.84 to 29.4 µM)
[3]
  MIC: ≤ 0.25 µg/mL
[5]
  MIC: ≤ 0.25 µg/mL
[6]; po
  bioavailability: 10%
[6]; [10]
  AUC: 4700 ng·h/mL
[6]; [11]
  AUC: 46900 ng·h/mL
[6]; single peroral dose 3 mg/kg
  Cmaxoral: 700 ng/mL
[7]
  MIC: ≤ 0.25 µg/mL

## CCNC(=O)Nc1nc2c(F)c(-c3cnc(N4CCC(C)(C(=O)O)CC4)nc3)cc(-c3ccccn3)c2s1 [Compound 161, 1-[5-[2-(ethylcarbamoylamino)-4-fluoro-7-(2-pyridyl)-1,3-benzothiazol-5-yl]pyrimidin-2-yl]-4-methyl-piperidine-4-carboxylic acid]
[1]; Max Solubility
  solubility at 24 h: ≥ 800 µg/mL
[1]; Solubility (pH 7.4)
  solubility at 24 h: ≥ 800 µg/mL
[1]; Solubility Range
  solubility at 24 h: > 800 µg/mL
[1]; [9]
  solubility at 24 h: > 800 µg/mL
[2]
  MIC: 0.25 to 1 µg/mL (≈ 0.467 to 1.87 µM)
[3]
  MIC: ≤ 0.25 µg/mL
[5]
  MIC: ≤ 0.25 µg/mL
[6]; po
  bioavailability: 87%
[6]; [10]
  AUC: 4200 ng·h/mL
[6]; [11]
  AUC: 4800 ng·h/mL
[6]; single peroral dose 3 mg/kg
  Cmaxoral: 700 ng/mL
[7]
  MIC: ≤ 0.25 µg/mL

## CCNC(=O)Nc1nc2cc(-c3nsc(N4CCC(CC)(C(=O)O)CC4)n3)cc(-c3ccccn3)c2s1 [Compound 232, 4-ethyl-1-(3-{2-[(ethylcarbamoyl)amino]-7-(pyridin-2-yl)-1,3-benzothiazol-5-yl}-1,2,4-thiadiazol-5-yl)piperidine-4-carboxylic acid]
[8]; read-out: Gyrase ATPase activity (IC50); enzyme source (S. aureus or E. coli) not given; 1 mM ATP, 30° C., 60 minutes
  IC50: 930 nM
[2]
  MIC: > 16 µg/mL
[3]
  MIC: > 16 µg/mL
[7]
  MIC: 1 to 16 µg/mL (≈ 1.86 to 29.8 µM)

## CCNC(=O)Nc1nc2cc(-c3cnc(N4CCC(CC)(C(=O)OCC)CC4)nc3)cc(-c3cnc(N4CCC(CC)(C(=O)OCC)CC4)nc3)c2o1 [Compound 234, Diethyl 1,1′-({2-[(ethylcarbamoyl)amino]-1,3-benzoxazole-5,7-diyl}dipyrimidine-5,2-diyl)bis(4-ethylpiperidine-4-carboxylate)]
[8]; enzyme source (S. aureus or E. coli) not given; 1 mM ATP, 30° C., 60 minutes; read-out: Gyrase ATPase activity (IC50)
  IC50: > 1370 nM
[3]
  MIC: > 16 µg/mL
[7]
  MIC: > 16 µg/mL
